Experimental data published in ChEMBL document CHEMBL1926664, “Synthesis and antiproliferative evaluation of 6-aryl-11-iminoindeno[1,2-c]quinoline derivatives” (2011).
Activity calls are given as the source filed them. The calls are words filed in the database; no cut-off is given here.

Columns and labels:
HepG2 [1] = assay: Cell cycle arrest in human HepG2 cells assessed as accumulation at sub-G1 phase at 10 uM after 12 hrs using propidium iodide staining by flow cytometry (reference value: 3.6%); format: functional
HepG2 [2] = assay: Cell cycle arrest in human HepG2 cells assessed as accumulation at G2/M phase at 1 uM after 12 hrs using propidium iodide staining by flow cytometry (reference value: 18.7 %); format: functional
HepG2 [3] = assay: Growth inhibition of human HepG2 cells at 0.1 to 5 uM by XTT assay; format: functional, cell-based; conditions: TDE = time-dependent effect
[4] = Cell cycle arrest in human Hep3B cells assessed as accumulation at sub-G1 phase at 1 uM after 12 hrs using propidium iodide staining by flow cytometry (reference value: 2.1%); format: functional, cell-based; conditions: Hep 3B2
HepG2 [5] = assay: Cell cycle arrest in human HepG2 cells assessed as accumulation at G1 phase at 5 uM after 12 hrs using propidium iodide staining by flow cytometry (reference value: 67.5%); format: functional
[6] = Cell cycle arrest in human Hep3B cells assessed as accumulation at sub-G1 phase at 10 uM after 12 hrs using propidium iodide staining by flow cytometry (reference value: 2.1%); format: functional, cell-based; conditions: Hep 3B2
HepG2 [7] = assay: Cell cycle arrest in human HepG2 cells assessed as accumulation at sub-G1 phase at 5 uM after 12 hrs using propidium iodide staining by flow cytometry (reference value: 3.6%); format: functional
HepG2 [8] = assay: Induction of apoptosis in human HepG2 cells assessed as cell shrinking at 5 uM after 12 hrs by light microscopic method; format: functional, cell-based
[9] = Growth inhibition of human Hep3B cells after 72 hrs by XTT assay; format: functional, Hep 3B2
HepG2 [10] = assay: Induction of apoptosis in human HepG2 cells assessed as increase in expression of p53 protein at 1 to 10 uM after 12 hrs by chemiluminescence blotting method; format: functional, cell-based
HepG2 [11] = assay: Cell cycle arrest in human HepG2 cells assessed as accumulation at G2/M phase at 5 uM after 12 hrs using propidium iodide staining by flow cytometry (reference value: 18.7 %); format: functional
[12] = Cell cycle arrest in human Hep3B cells assessed as accumulation at S phase at 10 uM after 12 hrs using propidium iodide staining by flow cytometry (reference value: 12.2%); format: functional, cell-based; conditions: Hep 3B2
MCF7 = assay: Growth inhibition of human MCF7 cells after 72 hrs by XTT assay; format: functional; conditions: MCF7, 72 h
MDA-MB-231 = assay: Growth inhibition of human MDA-MB-231 cells after 72 hrs by XTT assay; format: functional; conditions: MDA-MB-231, 72 h
HepG2 [13] = assay: Cell cycle arrest in human HepG2 cells assessed as accumulation at G1 phase at 10 uM after 12 hrs using propidium iodide staining by flow cytometry (reference value: 67.5%); format: functional
HepG2 [14] = assay: Induction of apoptosis in human HepG2 cells assessed as increase in caspase-8 level at 1 to 10 uM after 12 hrs by chemiluminescence blotting method; format: functional, cell-based
HepG2 [15] = assay: Cell cycle arrest in human HepG2 cells assessed as accumulation at G2/M phase at 10 uM after 12 hrs using propidium iodide staining by flow cytometry (reference value: 18.7 %); format: functional
HepG2 [16] = assay: Cell cycle arrest in human HepG2 cells assessed as accumulation at G1 phase at 1 uM after 12 hrs using propidium iodide staining by flow cytometry (reference value: 67.5%); format: functional
HepG2 [17] = assay: Induction of apoptosis in human HepG2 cells assessed as increased expression of Bax protein at 1 to 10 uM after 12 hrs by immunoblot; format: functional, cell-based
[18] = Cell cycle arrest in human Hep3B cells assessed as accumulation at G1 phase at 5 uM after 12 hrs using propidium iodide staining by flow cytometry (reference value: 71.6%); format: functional, cell-based; conditions: Hep 3B2
HepG2 [19] = assay: Growth inhibition of human HepG2 cells after 72 hrs by XTT assay; format: functional; conditions: HepG2, 72 h
HepG2 [20] = assay: Cell cycle arrest in human HepG2 cells assessed as accumulation at S phase at 10 uM after 12 hrs using propidium iodide staining by flow cytometry (reference value: 13.8%); format: functional
Hep 3B2 [21] = assay: Growth inhibition of human Hep3B cells assessed as assessed as suppression of cell viability at 5 uM after 12 hrs by XTT assay; format: functional, cell-based
HepG2 [22] = assay: Cell cycle arrest in human HepG2 cells assessed as accumulation at S phase at 1 uM after 12 hrs using propidium iodide staining by flow cytometry (reference value: 13.8%); format: functional
[23] = Cell cycle arrest in human Hep3B cells assessed as accumulation at G1 phase at 10 uM after 12 hrs using propidium iodide staining by flow cytometry (reference value: 71.6%); format: functional, cell-based; conditions: Hep 3B2
[24] = Cell cycle arrest in human Hep3B cells assessed as accumulation at S phase at 1 uM after 12 hrs using propidium iodide staining by flow cytometry (reference value: 12.2%); format: functional, cell-based; conditions: Hep 3B2
[25] = Cell cycle arrest in human Hep3B cells assessed as accumulation at G2/M phase at 1 uM after 12 hrs using propidium iodide staining by flow cytometry (reference value: 16.2 %); format: functional, cell-based; conditions: Hep 3B2
[26] = Cell cycle arrest in human Hep3B cells assessed as accumulation at G1 phase at 1 uM after 12 hrs using propidium iodide staining by flow cytometry (reference value: 71.6%); format: functional, cell-based; conditions: Hep 3B2
Hep 3B2 [27] = assay: Growth inhibition of human Hep3B cells at 0.1 to 5 uM by XTT assay; format: functional, cell-based; conditions: TDE = time-dependent effect
HepG2 [28] = assay: Cell cycle arrest in human HepG2 cells assessed as accumulation at S phase at 5 uM after 12 hrs using propidium iodide staining by flow cytometry (reference value: 13.8%); format: functional
[29] = Cell cycle arrest in human Hep3B cells assessed as accumulation at G2/M phase at 10 uM after 12 hrs using propidium iodide staining by flow cytometry (reference value: 16.2 %); format: functional, cell-based; conditions: Hep 3B2
[30] = Cell cycle arrest in human Hep3B cells assessed as accumulation at S phase at 5 uM after 12 hrs using propidium iodide staining by flow cytometry (reference value: 12.2%); format: functional, cell-based; conditions: Hep 3B2
[31] = Growth inhibition of human H1299 cells after 72 hrs by XTT assay; format: functional; conditions: NCI-H1299, 72 h
Hep 3B2 [32] = assay: Induction of apoptosis in human Hep3B cells assessed as cell shrinking at 5 uM after 12 hrs by light microscopic method; format: functional, cell-based
[33] = Cell cycle arrest in human Hep3B cells assessed as accumulation at G2/M phase at 5 uM after 12 hrs using propidium iodide staining by flow cytometry (reference value: 16.2 %); format: functional, cell-based; conditions: Hep 3B2
[34] = Cell cycle arrest in human Hep3B cells assessed as accumulation at sub-G1 phase at 5 uM after 12 hrs using propidium iodide staining by flow cytometry (reference value: 2.1%); format: functional, cell-based; conditions: Hep 3B2
HepG2 [35] = assay: Induction of apoptosis in human HepG2 cells assessed as Bcl-2 level at 1 to 10 uM after 12 hrs by chemiluminescence blotting method; format: functional, cell-based
HepG2 [36] = assay: Growth inhibition of human HepG2 cells after 12 to 72 hrs by XTT assay; format: functional, cell-based
Hep 3B2 [37] = assay: Growth inhibition of human Hep3B cells after 12 to 72 hrs by XTT assay; format: functional, cell-based
A549 = assay: Growth inhibition of human A549 cells after 72 hrs by XTT assay; format: functional; conditions: A549, 72 h
HepG2 [38] = assay: Growth inhibition of human HepG2 cells assessed as suppression of cell viability at 5 uM after 12 hrs by XTT assay; format: functional, cell-based
HepG2 [39] = assay: Cell cycle arrest in human HepG2 cells assessed as accumulation at sub-G1 phase at 1 uM after 12 hrs using propidium iodide staining by flow cytometry (reference value: 3.6%); format: functional

For CN(C)CCCO/N=C1\c2cc(O)ccc2-c2c(-c3ccc(OCCCN(C)C)cc3)nc3ccc(F)cc3c21, the Activity (HepG2 [1]) was 29.1%, the Activity (HepG2 [2]) was 31.1% and the “growth inhibition (GI)” value (HepG2 [3]) was “tde”. For the same molecule, the Activity [4] was 5.3%, the Activity (HepG2 [5]) was 38.1% and the Activity [6] was 33.5%. For the same molecule, the Activity (HepG2 [7]) was 19.8%, the Activity (HepG2 [8]) was “Active” and the GI50 [9] was 390 nM. For the same molecule, the Activity (HepG2 [10]) was “Active”, the Activity (HepG2 [11]) was 23.6% and the Activity [12] was 15.2%. For the same molecule, the GI50 (MCF7) was 6.46 µM, the GI50 (MDA-MB-231) was 650 nM and the Activity (HepG2 [13]) was 31.3%. The Activity (HepG2 [14]) was “Active”, the Activity (HepG2 [15]) was 17.9% and the Activity (HepG2 [16]) was 56.5%. For the same molecule, the Activity (HepG2 [17]) was “Active”, the Activity [18] was 42.7% and the GI50 (HepG2 [19]) was 640 nM. For the same molecule, the Activity (HepG2 [20]) was 21.7%, the “growth inhibition (GI)” value (Hep 3B2 [21]) was “Active” and the Activity (HepG2 [22]) was 12.4%. For the same molecule, the Activity [23] was 37.2%, the Activity [24] was 10.4% and the Activity [25] was 30.7%. The Activity [26] was 58.9%, the “growth inhibition (GI)” value (Hep 3B2 [27]) was “tde” and the Activity (HepG2 [28]) was 18.5%. For the same molecule, the Activity [29] was 14.1%, the Activity [30] was 17.4% and the GI50 [31] was 670 nM. The Activity (Hep 3B2 [32]) was “Active”, the Activity [33] was 18.1% and the Activity [34] was 21.8%. The Activity (HepG2 [35]) was “Active”, the “growth inhibition (GI)” value (HepG2 [36]) was “Dose-dependent effect” and the “growth inhibition (GI)” value (Hep 3B2 [37]) was “Dose-dependent effect”. For the same molecule, the GI50 (A549) was 550 nM, the “growth inhibition (GI)” value (HepG2 [38]) was “Active” and the Activity (HepG2 [39]) was 4.9%.
